Measured values reported in patent publication US10800791B2, “Triazole ACC inhibitors and uses thereof” (Gilead Apollo, LLC, priority 2015, dated 2020).
Values after ≈ are worked out from the molar mass of the structure shown. Like-named read-outs stand apart in the source and are kept apart here.

Assays:
[1] = system: C. krusei; experiment: Antifungal Activity Assay (broth microtiter MIC), C. krusei; type: cell-based, Candida krusei; conditions: Pichia kudriavzevii, ATCC6258, 48 h
Procedure, shortened: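 MIC read by eye at 48 h, comparing challenged wells with the growth control. Yeasts grown overnight on Sabouraud dextrose agar at 35° C, suspended in RPMI 1640+MOPS and added at 2.5×10^3 CFU/mL final, following CLSI M27-A3.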

[2] = system: Fusarium virguliforme (Fv); experiment: Growth inhibition assay of fungal pathogens, Fv; type: cell-based; conditions: 48 h
Procedure, shortened: (§1)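 Spores diluted in 17% V8 liquid media and incubated with compound at final 50, 10, 2 ppm or 2, 0.4, 0.08 ppm (2% DMSO). OD600 plus visual ratings at 24 and 48 hours, blank-subtracted; percent growth inhibition from 48 h readings relative to 2% DMSO control.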

[3] = system: Fusarium moniliforme (Fm); experiment: Growth inhibition assay of fungal pathogens, Fm; type: cell-based; conditions: for IC90: Fusarium verticillioides, 48 h, read-out: Concentration at 90% Inhibition Fm
Procedure, shortened: as §1

[4] = read-out: MIC, C. krusei ATCC 6258, Table 3a, 3 replicates, MIC recorded at 48 h
[5] = read-out: MIC, C. krusei ATCC 6258, Table 3b (additional results), 3 replicates, MIC recorded at 48 h
[6] = read-out: Concentration at 90% Inhibition Fv, Fusarium virguliforme, growth inhibition at 48 hours vs 2% DMSO control
[7] = read-out: Concentration at 90% Inhibition Fv, Fusarium virguliforme, growth inhibition vs 2% DMSO control at 48 hours
[8] = Fusarium moniliforme, growth inhibition at 48 hours vs 2% DMSO control
[9] = Table 3a, ATCC 6258, 3 replicates, MIC recorded at 48 h, read-out: MIC, C. krusei ATCC 6258
[10] = Table 3b (additional results), ATCC 6258, 3 replicates, MIC recorded at 48 h, read-out: MIC, C. krusei ATCC 6258
[11] = growth inhibition at 48 hours vs 2% DMSO control, read-out: Concentration at 90% Inhibition Fv
[12] = growth inhibition vs 2% DMSO control at 48 hours, read-out: Concentration at 90% Inhibition Fv
[13] = Fusarium moniliforme, growth inhibition vs 2% DMSO control at 48 hours

Structure (SMILES)	MIC [1, 4]	MIC [1, 5]	IC90 [2, 6]	IC90 [2, 7]	Concentration at 90% Inhibition Fm [3, 8]	IC90 [3]	MIC [1, 9]	MIC [1, 10]	IC90 [2, 11]	IC90 [2, 12]	IC90 [3, 8]	IC90 [3, 13]
COc1ccccc1[C@H](Cn1c(=O)n(C(C)(C)C(=O)N2CC(O)C2)c(=O)c2c(C)c(-n3nccn3)sc21)OC1CCOCC1 [Compound I-19, (R)-3-(1-(3-hydroxyazetidin-1-yl)-2-methyl-1-oxopropan-2-yl)-1-(2-(2-methoxyphenyl)-2-((tetrahydro-2H-pyran-4-yl)oxy)ethyl)-5-methyl-6-(2H-1,2,3-triazol-2-yl)thieno[2,3-d]pyrimidine-2,4(1H,3H)-dione]	2.1 to 4 µg/mL (≈ 3.36 to 6.4 µM)	2.01 to 4 µg/mL (≈ 3.22 to 6.4 µM)	10 µg/mL (≈ 16 µM)	> 50 µg/mL	B (compound concentration of 2.0 ppm at 90% inhibition of fungal pathogens)	2 µg/mL (≈ 3.2 µM)	–	–	–	–	–	–
COc1ccc(F)cc1[C@H](Cn1c(=O)n(C(C)(C)C(=O)N2CCCCC2)c(=O)c2c(C)c(-n3nccn3)sc21)OC1CCOCC1 [Compound I-24, (R)-1-(2-(5-fluoro-2-methoxyphenyl)-2-((tetrahydro-2H-pyran-4-yl)oxy)ethyl)-5-methyl-3-(2-methyl-1-oxo-1-(piperidin-1-yl)propan-2-yl)-6-(2H-1,2,3-triazol-2-yl)thieno[2,3-d]pyrimidine-2,4(1H,3H)-dione]	0.25 to 1 µg/mL (≈ 0.382 to 1.53 µM)	0.25 to 1 µg/mL (≈ 0.382 to 1.53 µM)	0.4 µg/mL (≈ 0.611 µM)	0.4 µg/mL (≈ 0.611 µM)	AA (compound concentration of 0.08 ppm at 90% inhibition of fungal pathogens)	0.08 µg/mL (≈ 0.122 µM)	–	–	–	–	–	–
COc1ccc(F)cc1[C@H](Cn1c(=O)n(C(C)(C)C(=O)N2CC(O)C2)c(=O)c2c(C)c(-n3nccn3)sc21)OC1CCOCC1 [Compound I-26, (R)-1-(2-(5-fluoro-2-methoxyphenyl)-2-((tetrahydro-2H-pyran-4-yl)oxy)ethyl)-3-(1-(3-hydroxyazetidin-1-yl)-2-methyl-1-oxopropan-2-yl)-5-methyl-6-(2H-1,2,3-triazol-2-yl)thieno[2,3-d]pyrimidine-2,4(1H,3H)-dione]	–	–	–	–	–	–	2.1 to 4 µg/mL (≈ 3.27 to 6.22 µM)	1.01 to 2 µg/mL (≈ 1.57 to 3.11 µM)	2 µg/mL (≈ 3.11 µM)	2 µg/mL (≈ 3.11 µM)	0.4 µg/mL (≈ 0.622 µM)	0.4 µg/mL (≈ 0.622 µM)
COc1ccc(F)cc1[C@H](Cn1c(=O)n(C(C)(C)C(=O)NC2CCC2)c(=O)c2c(C)c(-n3nccn3)sc21)OC1CCOCC1 [Compound I-27, (R)—N-cyclobutyl-2-(1-(2-(5-fluoro-2-methoxyphenyl)-2-((tetrahydro-2H-pyran-4-yl)oxy)ethyl)-5-methyl-2,4-dioxo-6-(2H-1,2,3-triazol-2-yl)-1,4-dihydrothieno[2,3-d]pyrimidin-3(2H)-yl)-2-methylpropanamide]	–	–	–	–	–	–	0.06 to 0.24 µg/mL (≈ 0.0936 to 0.375 µM)	0.06 to 0.249 µg/mL (≈ 0.0936 to 0.389 µM)	0.4 µg/mL (≈ 0.624 µM)	0.4 µg/mL (≈ 0.624 µM)	0.08 µg/mL (≈ 0.125 µM)	0.08 µg/mL (≈ 0.125 µM)
COc1ccc(F)cc1[C@H](Cn1c(=O)n(C(C)(C)C(=O)NC2CCCCC2)c(=O)c2c(C)c(-n3nccn3)sc21)OC1CCOCC1 [Compound I-28, (R)—N-cyclohexyl-2-(1-(2-(5-fluoro-2-methoxyphenyl)-2-((tetrahydro-2H-pyran-4-yl)oxy)ethyl)-5-methyl-2,4-dioxo-6-(2H-1,2,3-triazol-2-yl)-1,4-dihydrothieno[2,3-d]pyrimidin-3(2H)-yl)-2-methylpropanamide]	0.06 to 0.24 µg/mL (≈ 0.0897 to 0.359 µM)	0.06 to 0.249 µg/mL (≈ 0.0897 to 0.372 µM)	0.4 µg/mL (≈ 0.598 µM)	0.4 µg/mL (≈ 0.598 µM)	AA (compound concentration of 0.08 ppm at 90% inhibition of fungal pathogens)	0.08 µg/mL (≈ 0.12 µM)	–	–	–	–	–	–
COc1ccc(F)cc1[C@H](Cn1c(=O)n(C(C)(C)C(=O)NCC(C)C)c(=O)c2c(C)c(-n3nccn3)sc21)OC1CCOCC1 [Compound I-29, (R)-2-(1-(2-(5-fluoro-2-methoxyphenyl)-2-((tetrahydro-2H-pyran-4-yl)oxy)ethyl)-5-methyl-2,4-dioxo-6-(2H-1,2,3-triazol-2-yl)-1,4-dihydro-thieno[2,3-d]pyrimidin-3(2H)-yl)-N-isobutyl-2-methylpropanamide]	–	–	–	–	–	–	0.06 to 0.24 µg/mL (≈ 0.0933 to 0.373 µM)	0.06 to 0.249 µg/mL (≈ 0.0933 to 0.387 µM)	0.4 µg/mL (≈ 0.622 µM)	0.4 µg/mL (≈ 0.622 µM)	0.08 µg/mL (≈ 0.124 µM)	0.08 µg/mL (≈ 0.124 µM)
COc1ccc(F)cc1[C@H](Cn1c(=O)n(C(C)(C)C(N)=O)c(=O)c2c(C)c(-n3nccn3)sc21)OC1CCC(=O)CC1 [Compound I-31, (R)-2-(1-(2-(5-fluoro-2-methoxyphenyl)-2-((4-oxocyclo-hexyl)oxy)ethyl)-5-methyl-2,4-dioxo-6-(2H-1,2,3-triazol-2-yl)-1,4-dihydrothieno[2,3-d]pyrimidin-3(2H)-yl)-2-methylpropanamide]	–	–	–	–	–	–	0.25 to 1 µg/mL (≈ 0.418 to 1.67 µM)	0.25 to 1 µg/mL (≈ 0.418 to 1.67 µM)	10 µg/mL (≈ 16.7 µM)	> 50 µg/mL	0.4 µg/mL (≈ 0.668 µM)	0.4 µg/mL (≈ 0.668 µM)
COc1ccc(F)cc1[C@H](Cn1c(=O)n(C(C)(C)C(=O)NC(C)C)c(=O)c2c(C)c(-n3nccn3)sc21)OC1CCC(=O)CC1 [Compound I-32, (R)-2-(1-(2-(5-fluoro-2-methoxyphenyl)-2-((4-oxocyclo-hexyl)oxy)ethyl)-5-methyl-2,4-dioxo-6-(2H-1,2,3-triazol-2-yl)-1,4-dihydro-thieno[2,3-d]pyrimidin-3(2H)-yl)-N-isopropyl-2-methylpropanamide]	0.06 to 0.24 µg/mL (≈ 0.0936 to 0.375 µM)	0.06 to 0.249 µg/mL (≈ 0.0936 to 0.389 µM)	0.4 µg/mL (≈ 0.624 µM)	0.4 µg/mL (≈ 0.624 µM)	AA (compound concentration of 0.08 ppm at 90% inhibition of fungal pathogens)	0.08 µg/mL (≈ 0.125 µM)	–	–	–	–	–	–
COc1ccc(F)cc1[C@H](Cn1c(=O)n(C(C)(C)C(=O)N2CCCC2)c(=O)c2c(C)c(-n3nccn3)sc21)OC1CCC(=O)CC1 [Compound I-33, (R)-1-(2-(5-fluoro-2-methoxyphenyl)-2-((4-oxocyclo-hexyl)oxy)ethyl)-5-methyl-3-(2-methyl-1-oxo-1-(pyrrolidin-1-yl)propan-2-yl)-6-(2H-1,2,3-triazol-2-yl)thieno[2,3-d]pyrimidine-2,4(1H,3H)-dione]	–	–	–	–	–	–	0.25 to 1 µg/mL (≈ 0.383 to 1.53 µM)	0.25 to 1 µg/mL (≈ 0.383 to 1.53 µM)	0.4 µg/mL (≈ 0.613 µM)	0.4 µg/mL (≈ 0.613 µM)	0.08 µg/mL (≈ 0.123 µM)	0.08 µg/mL (≈ 0.123 µM)
COc1ccc(F)cc1[C@H](Cn1c(=O)n(C(C)(C)C(=O)N2CCCCC2)c(=O)c2c(C)c(-n3nccn3)sc21)OC1CCC(=O)CC1 [Compound I-34, (R)-1-(2-(5-fluoro-2-methoxyphenyl)-2-((4-oxocyclohexyl)oxy)ethyl)-5-methyl-3-(2-methyl-1-oxo-1-(piperidin-1-yl)propan-2-yl)-6-(2H-1,2,3-triazol-2-yl)thieno[2,3-d]pyrimidine-2,4(1H,3H)-dione]	0.25 to 1 µg/mL (≈ 0.375 to 1.5 µM)	1.01 to 2 µg/mL (≈ 1.51 to 3 µM)	0.4 µg/mL (≈ 0.6 µM)	0.4 µg/mL (≈ 0.6 µM)	AA (compound concentration of 0.08 ppm at 90% inhibition of fungal pathogens)	0.08 µg/mL (≈ 0.12 µM)	–	–	–	–	–	–
COc1ccc(F)cc1[C@H](Cn1c(=O)n(CC(=O)NC(C)C)c(=O)c2c(C)c(-n3nccn3)sc21)OC(C)C [Compound I-35, (R)-2-(1-(2-(5-fluoro-2-methoxyphenyl)-2-isopropoxy-ethyl)-5-methyl-2,4-dioxo-6-(2H-1,2,3-triazol-2-yl)-1,4-dihydrothieno[2,3-d]pyrimidin-3(2H)-yl)-N-isopropylacetamide]	2.1 to 4 µg/mL (≈ 3.76 to 7.16 µM)	> 4.01 µg/mL	0.4 µg/mL (≈ 0.716 µM)	0.4 µg/mL (≈ 0.716 µM)	AA (compound concentration of 0.08 ppm at 90% inhibition of fungal pathogens)	0.08 µg/mL (≈ 0.143 µM)	–	–	–	–	–	–
CCO[C@@H](Cn1c(=O)n(C(C)(C)C(=O)N2CCCC2)c(=O)c2c(C)c(-n3nccn3)sc21)c1cc(F)ccc1OC [Compound I-42, (R)-1-(2-ethoxy-2-(5-fluoro-2-methoxyphenyl)ethyl)-5-methyl-3-(2-methyl-1-oxo-1-(pyrrolidin-1-yl)propan-2-yl)-6-(2H-1,2,3-triazol-2-yl)thieno[2,3-d]pyrimidine-2,4(1H,3H)-dione]	–	–	–	–	–	–	0.25 to 1 µg/mL (≈ 0.428 to 1.71 µM)	1.01 to 2 µg/mL (≈ 1.73 to 3.42 µM)	0.08 µg/mL (≈ 0.137 µM)	0.08 µg/mL (≈ 0.137 µM)	0.08 µg/mL (≈ 0.137 µM)	0.08 µg/mL (≈ 0.137 µM)
